How the values were obtained:
Type in all cases: cell-based
[1] = Toxicity in human CFBE cells assessed as reduction in cell viability at 100 uM incubated for 3 hrs by LDH assay relative to control 1% triton
[2] = Toxicity in human CFBE cells assessed as reduction in cell viability incubated for 3 hrs by LDH assay
[3] = Toxicity in human CFBE cells assessed as reduction in cell viability at 5 to 100 uM incubated for 12 hrs by MTT assay
[4] = Toxicity in human CFBE cells assessed as reduction in cell viability at 5 to 100 uM incubated for 3 hrs by MTT assay
[5] = Toxicity in human CFBE cells assessed as reduction in cell viability incubated for 12 hrs by LDH assay
[6] = Toxicity in human CFBE cells assessed as reduction in cell viability at 40 uM incubated for 24 hrs by LDH assay relative to control 1% triton

| SMILES | Activity [1] | Activity [2] | Activity [3] | Activity [4] | Activity [5] | Activity [6] |
| --- | --- | --- | --- | --- | --- | --- |
| CC1(C)Cc2ccccc2-c2n[nH]c(=S)n21 | <= 10% | Non-Toxic | Non-Toxic | Non-Toxic | Toxic | – |
| C[C@]12CC[C@@H]3c4cc(O)c(O)cc4CC[C@H]3[C@@H]1CC[C@@H]2O | – | Dose-dependent effect | Non-Toxic | Non-Toxic | Dose-dependent effect | 20 to 40% |
| CN1CCc2cccc3c2[C@@H]1Cc1ccc(O)c(O)c1-3.Cl | – | Dose-dependent effect | Non-Toxic | Non-Toxic | Dose-dependent effect | – |

— ChEMBL document CHEMBL4417627, “Dab2 inhibitors for the prevention and treatment of cystic fibrosis” (2017)
